“And” between values parts separate entries of the source, which are not always exact repeats. Identical values can stand only once.
Assay: solvent given as SMILES

SMILES: CN(C)c1ccc(C#Cc2ccc(-c3nc(C#N)c(C#N)n3C)cc2)cc1
- absorption maximum (in C1CCCCC1): 372 nm
- absorption maximum (in CC#N): 357 nm
- absorption maximum (in CO): 356 nm
- absorption maximum (in ClC(Cl)Cl): 369 nm

SMILES: CC(C)(C)c1c2ccc3[nH]c4c(ccc5c(C(C)(C)C)c(ccc6[nH]c7c(ccc1c7n2)c6C(C)(C)C)nc54)c3C(C)(C)C
- absorption maximum (in Cc1ccccc1): 764 nm

SMILES: CCN(CC)c1ccc2c(-c3ccccc3C(=O)O)c3c([o+]c2c1)/C(=C/c1nc(C)n2ccccc12)CCC3
- absorption maximum (in ClCCl): 701 nm

SMILES: Oc1ccc(-c2cccs2)cc1-c1nc2ccccc2s1
- absorption maximum (in CCO): 360 nm
- absorption maximum (in O): 361 nm

SMILES: c1ccc2cc(-c3cc(-c4nccs4)nc(-c4nccs4)c3)ccc2c1
- absorption maximum (in CC#N): 323 nm
- absorption maximum (in CCCCCC): 333 nm
- absorption maximum (in CO): 333 nm
- absorption maximum (in ClC(Cl)Cl): 329 nm

SMILES: N#Cc1cc2nc3c(nc2cc1C#N)C1c2ccc(N(c4ccccc4)c4ccccc4)cc2C3c2ccc(N(c3ccccc3)c3ccccc3)cc21
- absorption maximum (in C1CCCCC1): 428 nm
- absorption maximum (in CC#N): 410 nm
- absorption maximum (in Cc1ccccc1): 420 nm
- absorption maximum (in ClCCl): 428 nm

SMILES: CC1(C)c2ccccc2N(c2ccc(-c3nc(-c4ccccc4)cc(-c4ccccc4)n3)cc2)c2ccccc21
- absorption maximum (in Cc1ccccc1): 366.6 nm

SMILES: Cc1ccc(-c2ccc(/C=C/c3ccc([N+](=O)[O-])cc3)cn2)nc1
- absorption maximum (in CC#N): 349 nm

SMILES: O=c1c2ccccc2n2c3ccccc3c(=O)c3cccc1c32
- absorption maximum (in Cc1ccccc1): 432.96 nm

SMILES: Cc1ccccc1
- absorption maximum (in C1CCCCC1): 256.48 nm

SMILES: CCCCCCCCCCCCOc1cc(/C=C/c2ccc3c(c2)C(CC)(CC)c2cc(N4c5ccccc5Sc5ccccc54)ccc2-3)c(OCCCCCCCCCCCC)cc1/C=C/c1ccc2c(c1)C(CC)(CC)c1cc(N3c4ccccc4Sc4ccccc43)ccc1-2
- absorption maximum (in C1CCOC1): 442.41 nm
- absorption maximum (in CC#N): 436.72 nm
- absorption maximum (in CCCCCC): 436.38 nm
- absorption maximum (in Cc1ccccc1): 442.93 nm
- absorption maximum (in ClCCl): 420 nm

SMILES: CCCCC(CC)CO[N+](=O)[O-] (stereo unspecified)
- absorption maximum (in CO): 218 nm
- absorption maximum (in O): 198 nm

SMILES: COCc1ncc(-c2c3ccccc3c(-c3cnc(COC)nc3)c3ccccc23)cn1
- absorption maximum (in CCO): 395 nm
- absorption maximum (in ClCCl): 397 nm

SMILES: c1ccc(-c2nc(-c3ccc(-c4nc(-c5ccccc5)c(-c5ccccc5)[nH]4)s3)[nH]c2-c2ccccc2)cc1
- absorption maximum (in C1CCOC1): 386 nm
- absorption maximum (in CC#N): 385 nm
- absorption maximum (in CC(=O)O): 392 nm
- absorption maximum (in CC(C)=O): 384 nm and 385 nm
- absorption maximum (in CCOC(C)=O): 385 nm
- absorption maximum (in CCOCC): 384 nm
- absorption maximum (in CO): 382 nm
- absorption maximum (in ClC(Cl)Cl): 395 nm and 394.99 nm

SMILES: CN(C)c1ccc2nc(-c3ccc(C(=O)O)cc3)sc2c1
- absorption maximum (in C1CCCCC1): 387 nm
- absorption maximum (in CC#N): 390 nm
- absorption maximum (in CC(C)O): 374 nm
- absorption maximum (in CO): 377 nm
- absorption maximum (in CS(C)=O): 400 nm
- absorption maximum (in ClC(Cl)Cl): 400 nm
- absorption maximum (in c1ccccc1): 394 nm

SMILES: CCC1(CC)c2ccccc2-c2c1c1c(c3c2C(CC)(CC)c2cc(/C=C/c4cccs4)ccc2-3)C(CC)(CC)c2ccccc2-1
- absorption maximum (in C1CCOC1): 382 nm

SMILES: O=C(c1ccc2c3c(cccc13)-c1cccc3c1C2CC=C3)c1c(CCc2ccccc2)c2ccc3cccc4c5cccc6ccc1c(c65)c2c34 (stereo unspecified)
- absorption maximum (in ClCCl): 470 nm

SMILES: CCCBr
- absorption maximum (in CCCCCC): 208 nm

SMILES: COc1ccc(C2=C(c3ccc(OC)cc3)C(C)(C)c3c2ccc2ccccc32)cc1
- absorption maximum (in C1CCCCC1): 336 nm

SMILES: C(#Cc1cccs1)c1ncc(-c2ccccc2)o1
- absorption maximum (in ClCCl): 325 nm

SMILES: FC(F)(F)c1ccc(C#Cc2ncc(-c3ccccc3)o2)cc1
- absorption maximum (in ClCCl): 320 nm

SMILES: c1ccc(C2=Nc3cccc4[n+]3[B-](c3ccccc3)(N2)NC(c2ccccc2)=N4)cc1
- absorption maximum (in ClCCl): 440 nm

SMILES: FC(F)(F)C(F)(F)C(F)(F)C1=NC2=C(Br)C=C3c4cc(Br)c5nc(C(F)(F)C(F)(F)C(F)(F)F)nc6c(Br)cc(c4c56)=C4C=C(Br)C(=N1)C2C34 (stereo unspecified)
- absorption maximum (in C1CCOC1): 475 nm

SMILES: CC(C)(C)c1ccc2c(c1)c1cc(C(C)(C)C)ccc1n2-c1cc(-n2c3ccc(C(C)(C)C)cc3c3cc(C(C)(C)C)ccc32)c(-n2c3ccc(C(C)(C)C)cc3c3cc(C(C)(C)C)ccc32)c(C#N)c1-n1c2ccc(C(C)(C)C)cc2c2cc(C(C)(C)C)ccc21
- absorption maximum (in Cc1ccccc1): 422.84 nm

SMILES: C(#Cc1ccncc1)C(C#Cc1ccncc1)=Cc1ccc(C=C(C#Cc2ccncc2)C#Cc2ccncc2)cc1
- absorption maximum (in ClC(Cl)Cl): 420 nm

SMILES: CNc1cccc2c1C(=O)c1ccccc1C2=O
- absorption maximum (in C1CCC2CCCCC2C1): 488 nm
- absorption maximum (in C1CCCCC1): 488 nm
- absorption maximum (in CC1CCCCC1): 489 nm
- absorption maximum (in CC#N): 501 nm
- absorption maximum (in CCC(C)CC): 487 nm
- absorption maximum (in CCCCCC): 487 nm
- absorption maximum (in CCOC(C)=O): 497.5 nm

From the Deep4Chem optical property database
